Results: patent US20250353825A1, “CANNABICYCLOL DERIVATIVES AND PREPARATION METHODS THEREOF” (priority 2023, published 2025)

Key:
Type in all cases: cell-based
[1] = system: liver cancer carcinoma cell line SMMC7721; test: Soft agar colony (clone) formation, SMMC7721; conditions: crystal violet, FIG. 4, compound 3a 0, 5 and 5 [sic] μg/mL
Description: (§1) […] of low-melting-point agarose was dissolved in 12.5 mL of ddH2O to prepare a 3.2% low-melting-point agarose gel. The low-melting-point agarose gel was sterilized by autoclaving at 121° C. and 0.12 MPa for 20 minutes. After sterilization, the low-melting-point agarose gel was maintained at 60° C. in a drying oven for further use.
(§2) 1.75 mL of 3.2% sterile low-melting-point agarose gel was taken, 5.25 mL of the corresponding complete medium was added, and the two were mixed thoroughly using a pipette to prepare a base gel at a concentration of 0.8%.
(§3) 1 mL of the base gel was added to each well of a 6-well plate, ensuring that the base gel evenly covered the bottom of each well. The plate was placed at 4° C. for 5 minutes to allow the gel to solidify. After the gel had fully solidified, the plate was warmed at 37° C. for 5 minutes.
(§4) 6 cells/cell lines (U251, SMMC7721, GSC-3, GSC-12, SMMC7721-CSC, and HepG2-CSC) were individually digested with 1× trypsin for 3 minutes. The corresponding complete culture medium (same as in the application example 1) was added to terminate the digestion. Cells were centrifuged at 1000 rpm for 3 minutes, and the cells were collected and counted. A total of 5×10^3 cells were added to each well, each group was set up with three replicates. […]

HCT116 = test: MTS cell viability assay, HCT116; conditions: Homo sapiens, HCT-116; Table 7, 72 hours; read-out: IC50 against HCT116
Description: (§5) Primary viability screening: (1) the synthesized compounds 3a to 13d were respectively dissolved in DMSO to prepare a 40 μg/mL cannabicyclol and cannabicyclol derivative solutions.
(§6) (2) A control group: a 200 μL DMSO solvent.
(§7) (3) The solutions of compounds 3a to 13d were diluted in a twofold gradient to obtain cannabicyclol and cannabicyclol derivative solutions at concentrations of 40 μg/mL, 20 μg/mL, 10 μg/mL, 5 μg/mL, 2.5 μg/mL, 1.25 μg/mL, and 0.625 μg/mL, and 0.3125 μg/mL, respectively.
(§8) (4) Three glioblastoma stem cells (GSC-3, GSC-12, and GSC-18), three pancreatic cancer cell-derived stem cells (PANC-1-CSC, BXPC-3-CSC, and ASPC1-CSC), three liver cancer cell-derived stem cells (HepG2-CSC, MHCC97H-CSC, and SMMC7721-CSC), HEK-293T cells, 16 tumor cells (U251, U87, T98G, PANC1, BXPC3, ASPC1, HepG2, MHCC97H, SMMC7721, PC3, SKOV3, MDA-MB231, A549, HCT116, HEC-1B, MKN28), and differentiated glioblastoma stem cells (GSC-3diff and GSC-12diff) derived from GSC-3 and GSC-12 (all of the cells were provided by the Laboratory of Tumor Animal Model Preparation and Application Research, West China Hospital, Sichuan University) were inoculated into a 96-well plate at a concentration of 2×10^4 cells/well, and 100 μL of culture medium was then added to each well; […]
(§9) (10) The absorbance value at 490 nm was measured on an enzyme labeling apparatus, and the IC50 value was calculated.

GSC-12 = test: Soft agar colony (clone) formation, GSC-12; conditions: crystal violet, FIG. 4, compound 3a 0, 5 and 5 [sic] μg/mL
Description: as §1, §2, §3, §4

MDA-MB231 = test: MTS cell viability assay, MDA-MB231; conditions: Homo sapiens, MDA-MB-231; Table 7, 72 hours; read-out: IC50 against MDA-MB231
Description: as §5, §6, §7, §8, §9

GSC-3diff = test: MTS cell viability assay, differentiated glioblastoma stem cells GSC-3diff; conditions: Table 7, 72 hours, read-out: IC50 against GSC-3diff
Description: as §5, §6, §7, §8, §9

SMMC7721 = test: MTS cell viability assay, SMMC7721; conditions: Homo sapiens, SMMC-7721; Table 7, 72 hours; read-out: IC50 against SMMC7721
Description: as §5, §6, §7, §8, §9

PC3 = test: MTS cell viability assay, PC3; conditions: Homo sapiens, PC-3; Table 7, 72 hours; read-out: IC50 against PC3
Description: as §5, §6, §7, §8, §9

PANC1 = test: MTS cell viability assay, PANC1; conditions: Homo sapiens, PANC-1; Table 7, 72 hours; read-out: IC50 against PANC1
Description: as §5, §6, §7, §8, §9

SMMC7721-CSC = test: Soft agar colony (clone) formation, SMMC7721-CSC; conditions: crystal violet, FIG. 4, compound 3a 0, 5 and 5 [sic] μg/mL
Description: as §1, §2, §3, §4

MHCC97 = test: MTS cell viability assay, MHCC97; conditions: Homo sapiens, Table 7, 72 hours, read-out: IC50 against MHCC97
Description: as §5, §6, §7, §8, §9

CCCCCc1cc(O)c2c(c1)OC1(C)CCC3C1C2C3(C)C (stereo not shown) [Compound 3a, cannabicyclol]
23.5 mg/L: IC50 (GSC-3diff)
> 40 mg/L: IC50 (HCT116) | IC50 (MDA-MB231) | IC50 (SMMC7721) | IC50 (PC3) | IC50 (PANC1) | IC50 (MHCC97)
significantly inhibited: colony formation of SMMC7721 [1] | colony formation of GSC-12 (GSC-12) | colony formation of SMMC7721-CSC (SMMC7721-CSC)
